Assay results published in ChEMBL document CHEMBL1147491, “Complestatin synthetic studies; the effect of the amino acid configuration on peptide backbone conformation in the common western BCD macrocycle” (Bioorg Med Chem Lett, 2004).

What was measured:
Parameters in all cases: species or system Homo sapiens
[1] = Compound required to inhibit binding of CD4 to gp120 at 100 uM concentration; No inhibition
[2] = Compound required to inhibit binding of CD4 to gp120 in the presence of bovine serum albumin(BSA)
[3] = Compound required to inhibit binding of CD4 to gp120 in the absence of bovine serum albumin(BSA)

| IC50 [2] [µM] | IC50 [3] [µM] | SMILES | IC50 [1] |
| --- | --- | --- | --- |
|  |  | CN[C@H](CC(C)C)C(=O)N[C@H]1C(=O)N[C@@H](CC(N)=O)C(=O)N[C@H]2C(=O)N[C@H]3C(=O)N[C@H](C(=O)N[C@H](C(=O)O)c4cc(O)cc(O)c4-c4cc3ccc4O)[C@H](O)c3ccc(c(Cl)c3)Oc3cc2cc(c3O[C@@H]2O[C@H](CO)[C@@H](O)[C@H](O)[C@H]2O[C@H]2C[C@](C)(N)[C@H](O)[C@H](C)O2)Oc2ccc(cc2Cl)[C@H]1O [VANCOMYCIN] | No inhibition |
| 2 | 32 | CN1C(=O)[C@@H](c2cc(Cl)c(O)c(Cl)c2)NC(=O)[C@@H]2NC(=O)[C@@H](c3cc(Cl)c(O)c(Cl)c3)NC(=O)[C@H](NC(=O)C(=O)c3cc(Cl)c(O)c(Cl)c3)Cc3c[nH]c4c(cccc34)-c3cc2cc(c3O)Oc2ccc(cc2)C[C@H]1C(=O)N[C@@H](C(=O)O)c1ccc(O)cc1 [CHLOROPEPTIN] |  |
